Source: patent publication US9546139B2, “Pyridine carboxylic acid based compound used as a P2X1 and P2X3 receptor antagonist, a production method for the same and a composition comprising the same” (GWANGJU INSTITUTE OF SCIENCE AND TECHNOLOGY, priority 2010, dated 2017)

Columns and labels:
human P2X3 receptor = biological target: T1, human P2X3 receptor (Homo sapiens, UniProt P56373); experiment: Two-electrode voltage clamp, ATP-induced ion current in Xenopus oocytes expressing human P2X3; assay type: cell-based; settings: Table 2; 10 μM compound; ion current induced by 2 μM ATP; mean ± SEM, n = 4; read-out: % inhibition hP2X3
T1 construct: expressed in transfected cells; host or cells: Xenopus oocytes (cRNA injected); cDNA from the Max-Planck Institute laboratory (Dr. W. Stuhmer and Dr. F. Soto)
T1 sequence (P56373 1-397): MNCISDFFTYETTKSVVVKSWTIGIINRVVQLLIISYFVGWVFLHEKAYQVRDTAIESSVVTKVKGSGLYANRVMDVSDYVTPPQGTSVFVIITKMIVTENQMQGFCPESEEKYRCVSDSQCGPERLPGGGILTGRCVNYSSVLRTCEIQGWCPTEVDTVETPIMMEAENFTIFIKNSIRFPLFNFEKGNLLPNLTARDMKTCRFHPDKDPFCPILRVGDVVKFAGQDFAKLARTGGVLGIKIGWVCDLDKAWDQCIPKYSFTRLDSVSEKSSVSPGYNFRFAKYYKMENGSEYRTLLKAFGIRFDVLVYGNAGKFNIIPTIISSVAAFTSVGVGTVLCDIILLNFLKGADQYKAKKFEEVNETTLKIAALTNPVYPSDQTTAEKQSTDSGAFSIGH
Method: Antagonistic Activity at Recombinant Mouse P2X1 and Human P2X3 Receptors
(§1) Xenopus oocytes were harvested and prepared with method as previously described in publications. Defolliculated oocytes were injected cytosolically with mouse P2X1 and human P2X3 receptor cRNA ([…], 1 μg/mL), respectively, incubated for 24 hrs at 18° C. in Barth's solution and kept for up to 12 days at 4° C. until used in electrophysiological experiments. ATP-activated membrane currents (Vh=−70 mV) were recorded from cRNA-injected oocytes using the twin-electrode voltage-clamp technique (Axoclamp 2B amplifier). Voltage recording (1-2 MΩ tip resistance) and current-recording microelectrodes (5 MΩ tip resistance) were filled with 3.0 M KCl. Oocytes were held in an electrophysiological chamber and superfused with Ringer's solution (5 mL/min, at 18° C.) containing (mM) NaCl, 110; KCl, 2.5; HEPES, 5; BaCl2, 1.8, adjusted to pH 7.5. ATP was superfused over the oocytes for 60-120s then washed out for a period of 20 min. For inhibition curves, data were normalized to the current evoked by ATP, at pH 7.5. Test substances were added for 20 min prior to ATP exposure; all peptides were tested for reversibility of their effects. The concentration required to inhibit the ATP response by 50% (IC50) was taken from Hill plots constructed using the formula: log(I/Imax−1), where I is the current evoked by ATP in the presence of an antagonist. Data are presented as mean±SEM (n=4) for the data from different batches of oocytes.

human P2X7 receptor = biological target: T2, human P2X7 receptor (Homo sapiens, UniProt Q99572); experiment: Ethidium+ accumulation assay in human P2X7-expressing HEK293 cells; assay type: cell-based; settings: 10 μM compound, ethidium+ accumulation induced by 6 μM BzATP, n = 3
T2 construct: EST clones containing full-length cDNAs of mouse P2X1 (clone ID: 4189541) and human P2X7 receptor (clone ID: 5286944); host or cells: HEK293
T2 sequence (Q99572 1-595): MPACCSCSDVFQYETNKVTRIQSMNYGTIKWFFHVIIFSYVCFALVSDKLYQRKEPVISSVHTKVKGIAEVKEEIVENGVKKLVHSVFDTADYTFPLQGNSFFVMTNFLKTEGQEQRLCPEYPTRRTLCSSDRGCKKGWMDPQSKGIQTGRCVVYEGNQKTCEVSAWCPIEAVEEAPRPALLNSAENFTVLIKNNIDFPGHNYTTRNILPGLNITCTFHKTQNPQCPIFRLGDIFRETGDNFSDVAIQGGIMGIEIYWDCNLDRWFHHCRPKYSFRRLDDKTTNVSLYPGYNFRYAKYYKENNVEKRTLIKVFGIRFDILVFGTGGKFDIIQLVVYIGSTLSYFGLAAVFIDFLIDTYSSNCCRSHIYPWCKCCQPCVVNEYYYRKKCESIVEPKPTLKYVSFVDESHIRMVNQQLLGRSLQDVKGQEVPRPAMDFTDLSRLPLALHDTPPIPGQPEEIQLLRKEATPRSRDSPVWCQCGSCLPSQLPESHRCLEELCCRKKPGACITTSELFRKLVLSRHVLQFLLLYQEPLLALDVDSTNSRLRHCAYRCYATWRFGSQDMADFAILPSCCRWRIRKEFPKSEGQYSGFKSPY
Method: 1-2. Ethidium^+ Accumulation Assay at Human P2X7 Receptors
Human P2X7-expressing HEK293 cells were grown as monolayer culture at 37° C. in a humidified atmosphere of 5% CO2, DMEM supplemented with 10% fetal bovine serum. Cells were harvested with treatment of Trypsin/EDTA solution, collected by centrifugation (200 g for 5 min).
The cells were resuspended at 2.5×10^6 cells/mL in assay buffers, consisting of (in mM) HEPES 10, KCl 140, glucose 5, EDTA 1 (pH 7.4), and then ethidium bromide (100 μM) was added. Cell suspensions were added to 96 well plates containing the P2X7 receptor agonist, ATP or BzATP, at 2×10^5 cells/wells. Plates were incubated at 37° C. for 120 min and cellular accumulation of ethidium^+ was determined by measuring fluorescence with Bio-Tek instrument FL600 fluorescent plate reader (excitation wavelength of 530 nm and emission wavelength of 590 nm). When the effects of antagonists, such as PPADS, KN62, and test peptides were studied, antagonists were treated together with agonist without pre-incubation.

mouse P2X1 receptor = biological target: T3, mouse P2X1 receptor (Mus musculus, UniProt P51576); experiment: Two-electrode voltage clamp, ATP-induced ion current in Xenopus oocytes expressing mouse P2X1; assay type: cell-based; settings: Table 2; 10 μM compound; ion current induced by 2 μM ATP; mean ± SEM, n = 4; read-out: % inhibition mP2X1
T3 construct: EST clones containing full-length cDNAs of mouse P2X1 (clone ID: 4189541) and human P2X7 receptor (clone ID: 5286944); host or cells: Xenopus oocytes (cRNA injected)
T3 sequence (P51576 1-399): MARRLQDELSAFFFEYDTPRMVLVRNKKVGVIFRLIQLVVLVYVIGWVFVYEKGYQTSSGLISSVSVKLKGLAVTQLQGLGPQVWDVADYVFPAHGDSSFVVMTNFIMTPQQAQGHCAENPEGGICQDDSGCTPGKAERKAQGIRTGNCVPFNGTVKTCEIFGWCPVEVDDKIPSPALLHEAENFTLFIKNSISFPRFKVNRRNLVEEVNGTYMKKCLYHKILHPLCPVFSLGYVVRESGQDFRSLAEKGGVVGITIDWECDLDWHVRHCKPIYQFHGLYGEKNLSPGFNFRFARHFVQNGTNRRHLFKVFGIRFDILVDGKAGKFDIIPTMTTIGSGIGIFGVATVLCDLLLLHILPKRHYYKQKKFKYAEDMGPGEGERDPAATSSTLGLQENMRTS
Method: 1-1. Antagonistic Activity at Recombinant Mouse P2X1 and Human P2X3 Receptors
as §1

P2 receptor = settings: conventional antagonist, stated shortcoming; cited from earlier work

For COc1ccc(CCc2nc(C)c(O)c(C=O)c2/C=C/C(=O)O)cc1 [Compound 64, (E)-3-(4-formyl-5-hydroxy-2-(4-methoxyphenethyl)-6-methylpyridin-3-yl)acrylic acid], the inhibition at 10 µM (human P2X3 receptor) was 69.4 ± 7.5%, the “% inhibition hP2X7” value (human P2X7 receptor) was “inactive” and the inhibition at 10 µM (mouse P2X1 receptor) was 51.4 ± 4.8%.
For COc1ccc(CCc2nc(C)c(O)c(C=O)c2C(=O)O)cc1 [Compound 67, 4-formyl-5-hydroxy-2-(4-methoxyphenethyl)-6-methylnicotinic acid], the inhibition at 10 µM (human P2X3 receptor) was 72.6 ± 4.3%, the “% inhibition hP2X7” value (human P2X7 receptor) was “inactive” and the inhibition at 10 µM (mouse P2X1 receptor) was 52.8 ± 5.6%.
For Cc1nc(N=Nc2ccc(S(=O)(=O)O)cc2S(=O)(=O)O)c(COP(=O)(O)O)c(C=O)c1O [PPADS, pyridoxalphosphate-6-azophenyl-2′,4′-disulphonic acid], the “reversibility of blocking activity” value (P2 receptor) is given as “irreversible blocking activity”.
